{"source": "paper PMC3914206", "type_in_all_cases": "binding", "settings_in_all_cases": "Compound Concentration 10 µM", "key": {"[1]": {"molecular_target": "T1, panel of 442 kinases (Homo sapiens, UniProt Q13464)", "T1 construct": "purchased KINOMEscan", "T1 sequence (Q13464 whole entry)": "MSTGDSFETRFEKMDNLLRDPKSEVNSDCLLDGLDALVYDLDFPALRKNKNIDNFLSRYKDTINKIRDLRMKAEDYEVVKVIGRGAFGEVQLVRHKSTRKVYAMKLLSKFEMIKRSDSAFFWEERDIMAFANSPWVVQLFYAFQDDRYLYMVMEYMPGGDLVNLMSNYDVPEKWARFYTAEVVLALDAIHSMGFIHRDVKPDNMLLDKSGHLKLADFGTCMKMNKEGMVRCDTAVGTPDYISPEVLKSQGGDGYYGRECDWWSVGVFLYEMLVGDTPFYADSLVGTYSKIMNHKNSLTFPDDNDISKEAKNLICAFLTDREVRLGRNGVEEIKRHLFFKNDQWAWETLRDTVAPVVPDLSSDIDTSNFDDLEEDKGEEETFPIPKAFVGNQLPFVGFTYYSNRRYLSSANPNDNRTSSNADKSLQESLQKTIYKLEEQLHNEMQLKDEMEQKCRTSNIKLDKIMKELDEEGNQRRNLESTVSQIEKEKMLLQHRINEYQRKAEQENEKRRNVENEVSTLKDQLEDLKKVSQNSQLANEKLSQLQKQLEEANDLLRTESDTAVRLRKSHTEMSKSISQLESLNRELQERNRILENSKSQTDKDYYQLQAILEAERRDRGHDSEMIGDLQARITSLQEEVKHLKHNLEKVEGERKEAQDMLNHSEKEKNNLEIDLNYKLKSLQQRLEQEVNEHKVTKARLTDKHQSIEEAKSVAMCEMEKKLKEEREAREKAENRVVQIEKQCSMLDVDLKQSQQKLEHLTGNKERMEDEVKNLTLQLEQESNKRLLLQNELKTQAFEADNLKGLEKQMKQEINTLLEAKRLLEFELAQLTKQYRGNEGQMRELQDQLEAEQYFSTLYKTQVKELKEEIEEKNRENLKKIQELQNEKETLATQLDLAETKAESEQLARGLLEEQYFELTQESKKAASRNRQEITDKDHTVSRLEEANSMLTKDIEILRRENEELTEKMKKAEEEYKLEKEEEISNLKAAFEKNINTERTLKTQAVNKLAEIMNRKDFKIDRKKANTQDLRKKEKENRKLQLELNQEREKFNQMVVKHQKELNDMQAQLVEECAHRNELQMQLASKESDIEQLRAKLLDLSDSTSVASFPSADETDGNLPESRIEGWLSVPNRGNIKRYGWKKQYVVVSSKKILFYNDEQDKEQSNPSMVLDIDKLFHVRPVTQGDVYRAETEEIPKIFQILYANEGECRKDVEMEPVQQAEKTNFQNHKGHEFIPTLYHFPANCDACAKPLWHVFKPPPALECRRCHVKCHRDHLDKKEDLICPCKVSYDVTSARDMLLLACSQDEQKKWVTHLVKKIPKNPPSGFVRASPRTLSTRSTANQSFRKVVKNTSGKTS", "text": "(§1) We assessed the selectivity of members of this scaffold using the KINOMEscan methodology across a near comprehensive panel of 442 kinases [[18,27]]."}, "[2]": {"molecular_target": "T2, panel of 442 kinases (Homo sapiens, UniProt Q8NG66)", "T2 construct": "purchased KINOMEscan", "T2 sequence (Q8NG66 1-645)": "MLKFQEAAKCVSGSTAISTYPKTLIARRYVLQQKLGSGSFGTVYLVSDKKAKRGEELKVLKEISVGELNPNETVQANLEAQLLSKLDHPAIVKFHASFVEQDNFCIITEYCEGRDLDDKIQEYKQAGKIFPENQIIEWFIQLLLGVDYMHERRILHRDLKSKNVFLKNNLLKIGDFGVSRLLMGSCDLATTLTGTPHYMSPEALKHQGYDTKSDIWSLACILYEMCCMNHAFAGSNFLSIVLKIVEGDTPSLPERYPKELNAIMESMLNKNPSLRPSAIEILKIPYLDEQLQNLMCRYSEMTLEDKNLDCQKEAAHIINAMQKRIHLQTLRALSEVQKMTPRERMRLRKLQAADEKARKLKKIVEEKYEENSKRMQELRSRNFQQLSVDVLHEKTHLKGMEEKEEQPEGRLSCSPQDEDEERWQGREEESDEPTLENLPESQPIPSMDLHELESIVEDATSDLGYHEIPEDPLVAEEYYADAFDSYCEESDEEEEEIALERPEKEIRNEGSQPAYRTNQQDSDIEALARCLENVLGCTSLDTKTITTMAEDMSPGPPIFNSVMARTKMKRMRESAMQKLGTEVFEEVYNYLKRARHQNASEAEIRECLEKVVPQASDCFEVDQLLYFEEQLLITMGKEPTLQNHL", "text": "as §1"}, "[3]": {"molecular_target": "T3, panel of 442 kinases (Homo sapiens, UniProt Q92918)", "T3 construct": "purchased KINOMEscan", "T3 sequence (Q92918 whole entry)": "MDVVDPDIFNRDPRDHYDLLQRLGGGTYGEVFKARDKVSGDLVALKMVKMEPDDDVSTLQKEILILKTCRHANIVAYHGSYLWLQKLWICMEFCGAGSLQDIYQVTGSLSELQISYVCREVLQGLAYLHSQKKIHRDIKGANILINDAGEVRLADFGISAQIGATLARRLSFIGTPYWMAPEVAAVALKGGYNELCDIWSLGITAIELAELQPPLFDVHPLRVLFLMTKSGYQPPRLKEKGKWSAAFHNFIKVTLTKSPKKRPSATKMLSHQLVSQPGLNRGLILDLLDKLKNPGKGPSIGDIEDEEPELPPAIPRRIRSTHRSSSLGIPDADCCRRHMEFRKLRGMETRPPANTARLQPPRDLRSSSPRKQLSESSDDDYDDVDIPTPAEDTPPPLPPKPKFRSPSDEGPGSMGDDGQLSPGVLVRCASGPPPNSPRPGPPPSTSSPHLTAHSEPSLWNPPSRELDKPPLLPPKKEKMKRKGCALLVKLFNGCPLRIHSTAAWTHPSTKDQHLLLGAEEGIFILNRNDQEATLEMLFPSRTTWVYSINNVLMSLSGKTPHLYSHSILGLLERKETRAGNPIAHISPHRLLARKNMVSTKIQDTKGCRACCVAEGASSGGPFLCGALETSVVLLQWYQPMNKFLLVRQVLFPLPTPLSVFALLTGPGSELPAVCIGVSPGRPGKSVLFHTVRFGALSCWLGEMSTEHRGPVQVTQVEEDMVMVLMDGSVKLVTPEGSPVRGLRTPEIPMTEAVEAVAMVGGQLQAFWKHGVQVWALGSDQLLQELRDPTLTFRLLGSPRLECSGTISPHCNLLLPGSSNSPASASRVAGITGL", "text": "as §1"}}, "data": [{"compound": "COc1cc(C(=O)N2CCC(N3CCN(C)CC3)CC2)ccc1Nc1ncc2c(n1)N1CCc3cccc(c31)C(=O)N2C", "note": "[Compound 24]", "values": [{"measurement": "KINOMEscan: ROCK1", "setting": "[1]", "value": 64}]}, {"compound": "CCOc1cc(C(=O)N2CCC(N3CCN(C)CC3)CC2)ccc1Nc1ncc2c(n1)N(C1CCCC1)c1ccccc1C(=O)N2C", "note": "[Compound 26]", "values": [{"measurement": "KINOMEscan: ROCK1", "setting": "[1]", "value": 77}, {"measurement": "KINOMEscan: NEK11", "setting": "[2]", "value": 100}, {"measurement": "KINOMEscan: HPK1", "setting": "[3]", "value": 94}]}, {"compound": "COc1cc(C(=O)N2CCC(N3CCN(C)CC3)CC2)ccc1Nc1ncc2c(n1)N(C1CCCC1)c1ccccc1C(=O)N2C", "note": "[Compound 25, 11-cyclopentyl-2-((2-methoxy-4-(4-(4-methylpiperazin-1-yl)piperidine-1-carbonyl)phenyl)amino)-5-methyl-5H-benzo[e]pyrimido[5,4-b][1,4]diazepin-6(11H)-one]", "values": [{"measurement": "KINOMEscan: ROCK1", "setting": "[1]", "value": 74}, {"measurement": "KINOMEscan: NEK11", "setting": "[2]", "value": 100}, {"measurement": "KINOMEscan: HPK1", "setting": "[3]", "value": 89}]}, {"compound": "COc1cc(C(=O)N2CCC(N3CCN(C)CC3)CC2)ccc1Nc1ncc2c(n1)N(C)c1ccccc1C(=O)N2C", "note": "[15 (LRRK2-IN-1)]", "values": [{"measurement": "KINOMEscan: ROCK1", "setting": "[1]", "value": 100}, {"measurement": "KINOMEscan: NEK11", "setting": "[2]", "value": 100}, {"measurement": "KINOMEscan: HPK1", "setting": "[3]", "value": 100}]}]}
